Measurements: patent US11643665B2, “Nucleotide sequences encoding Fasciated EAR3 (FEA3) and methods of use thereof” (CORTEVA AGRISCIENCE LLC, priority 2012, dated 2023)
Where no end group is shown, it is not given here.

How the values were obtained:
Assay type in all cases: in vivo, maize
[1] = tested on: B73 and fea3 mutant seedlings; assay: Clavata3-like peptide root assay (primary root length of seedlings on agar plates); settings: 5 μM or 10 μM peptide, after 7 days
Method: To analyze whether FEA3 responds to CLV3-like peptides, and determine if they act in a common pathway, a CLV3 peptide assay was performed. The peptides used were ZCL3 (Zea mays CLE-like 3; SEQ ID NO:32), FCP1 (SEQ ID NO:33), CLV3 (SEQ ID NO:34), CLE20 (SEQ ID NO:35), CLE40 (SEQ ID NO:36), ZCL21 ([…]; SEQ ID NO:37), and ZCL23 (Zea mays CLE-like 23; SEQ ID NO:38).
The ZCL peptides were found in maize sequences in the NCBI database by homology search using the CLV3, CLE, and rice related peptides (Fiers et al Plant Cell (2005), 17: 2542-2553; Suzaki et al (2008), Plant Cell, 20: 2049-2058).
B73 and fea3 mutant seedlings were germinated and grown on agar plates containing each 5 μM or 10 μM peptide. As a control, seedlings were also grown on plates containing a scramble of the peptide. After 7 days the length of the primary root was measured.

[2] = tested on: B73 and homozygous fea2 and fea3 mutant seedlings; assay: Clavata3 peptide root assay (primary root length of seedlings on agar plates); settings: agar plates containing CLV3 peptide, after 7 days
Method: In Arabidopsis, CLAVATA2 activity can be detected by responses of root growth to CLAVATA3 (CLV3) peptide. To analyze whether FEA3 and FEA2 respond to CLV3, and determine if they act in a common pathway a CLV3 peptide assay was performed. B73 and homozygous fea2 and fea3 mutant seedlings were germinated and grown on agar plates containing CLV3 peptide. As a control, seedlings were also grown on plates containing a mutated version of the peptide and on plates without any peptide. After 7 days the length of the primary root was measured.

Wt and fea3 embryos = assay: Embryo culture assay in presence of FCP1 peptide (embryo SAM growth); settings: 20 μM peptide, two weeks after planting
Method: Wt and fea3 embryos were cultured in the presence of 20 μM FCP1 peptide (SEQ ID NO:33) or 20 μM scrambled peptide. For measurement of embryo SAM growth, about 10 days after pollination, embryos were sterilized (whole corn was sterilized, not individual young seeds) and dissected embryos and put the embryos down on the media and the measurement of SAM size was done two weeks after planting (embryo culture).

Substance	root growth response (length of the primary root) ([1]; B73 wild type plants)	root growth response (length of the primary root) ([2]; B73 wild type plants)	root growth response (length of the primary root) ([2]; homozygous fea2 mutants)	root growth response (length of the primary root) ([2]; homozygous fea3 mutants)	root growth response (length of the primary root) ([1]; fea3 mutants)	embryo SAM growth (SAM size) (Wt and fea3 embryos; WT embryos)	embryo SAM growth (SAM size) (Wt and fea3 embryos; fea3 embryos)
CLV3: CLAVATA3 (CLV3) peptide (RTVPSGPDPLHH; ends and bridges not checked; listed as Arabidopsis thaliana)	strong root growth inhibition	strong root growth inhibition	do not respond	respond	–	–	–
FCP1: CLV3-like peptide used for the CLV3/CLV3-like peptide assay (REVPTGPDPIHH; listed as Oryza sativa)	strong root growth inhibition	–	–	–	less sensitivity	strongly inhibited	resistance
ZCL3: Zea mays CLE-like 3 peptide, found in maize sequences by homology search using CLV3, CLE and rice related peptides (RPVPSGPDPIHH; Zea mays)	strong root growth inhibition	–	–	–	–	–	–
